Experimental data published in patent EP0240874A1, “Highly resorbable preparation of hymecromone, and method for its production” (Dolorgiet GmbH & Co. KG, priority 1986, dated 1987).

Columns and labels:
[1] = cold and warm water; from Beilsteins Handbuch; cited from earlier work
Solubility in water = type: physicochemical; details: general statement, no test described

Row | SMILES | Löslichkeit in kaltem und warmen Wasser [1] | Löslichkeit in Wasser (Solubility in water)
1 | Cc1cc(=O)oc2cc(O)ccc12 [Hymecromon, 7-Hydroxy-4-methyl-cumarin] | nahezu unlöslich | –
2 | Cc1cc(=O)oc2cc(O)ccc12 [Natriumsalz] | – | gut löslich
